Assay results: US9566312B2, “Cyclic peptides and use as medicines” (priority 2012, dated 2017)
Read-outs that look alike come from different tables or passages of the source. Starred links: 1 amine or outer side, 2 acyl side, 3 side chain; linkers in the order of their positions; H or OH if unused. Non-standard residues stand in square brackets, D forms with d. Residues, ends and D or L forms follow the SMILES beside them. X58 = C[C@H](COCCN1CCN(C2CCC2)CC1)[C@@H](C(=O)[*:2])N(C)[*:1]; X12 = C[C@@H](CN1CCN(C2CCC2)CC1)[C@@H](C(=O)[*:2])N(C)[*:1]; X6 = C[C@@H](CN1CCN(C2COC2)CC1)[C@@H](C(=O)[*:2])N(C)[*:1]; X19 = COCCN1CCN(C[C@H](C)[C@@H](C(=O)[*:2])N(C)[*:1])CC1; X11 = CCN1CCN(C[C@H](C)[C@@H](C(=O)[*:2])N(C)[*:1])CC1; X14 = C[C@H](CN1CCN(C)CC1)[C@@H](C(=O)[*:2])N(C)[*:1]; X23 = COC1CN(C[C@@H](C)[C@@H](C(=O)[*:2])N(C)[*:1])C1; X18 = C[C@H](CCC(C)(C)O)[C@@H](C(=O)[*:2])N(C)[*:1]; X9 = C[C@@H](CN1CCOCC1)[C@@H](C(=O)[*:2])N(C)[*:1]; MeBmt = C/C=C/C[C@@H](C)[C@@H](O)[C@H](NC)C(=O)O; X13 = C[C@H](CC#N)[C@@H](C(=O)[*:2])N(C)[*:1]; X15 = COCC(COC)[C@@H](C(=O)[*:2])N(C)[*:1]; NMeL = CN[C@@H](CC(C)C)C(=O)O; NMeV = CN[C@H](C(=O)O)C(C)C; dNMeA = CN[C@H](C)C(=O)O; Abu = CC[C@H](N)C(=O)O

Columns and labels:
[1] = system: genotype 1b subgenomic HCV replicon in Huh7.5 cells; assay type: cell-based, hepatitis C virus; conditions: read-out: RPLN-1b IC50
How it was run: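 Huh7.5 cells carrying genotype 1b subgenomic HCV replicon with renilla luciferase-neomycin reporter, in phenol red-free DMEM without G418. Luciferase measured after 72 h compound exposure relative to DMSO-treated cells; cytotoxicity (CC50) by Cell Titer-Glo.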

CYP3A4 = CYP3A4 (Homo sapiens (Human), UniProt P08684); test: Time-dependent inhibition of CYP3A4;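 also: Two-step in vitro assay, kobs derived from residual CYP3A4 activity versus preincubation time per concentration, then kinact and KI by nonlinear fit of kobs against concentration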
Chain of CYP3A4 (P08684 whole entry): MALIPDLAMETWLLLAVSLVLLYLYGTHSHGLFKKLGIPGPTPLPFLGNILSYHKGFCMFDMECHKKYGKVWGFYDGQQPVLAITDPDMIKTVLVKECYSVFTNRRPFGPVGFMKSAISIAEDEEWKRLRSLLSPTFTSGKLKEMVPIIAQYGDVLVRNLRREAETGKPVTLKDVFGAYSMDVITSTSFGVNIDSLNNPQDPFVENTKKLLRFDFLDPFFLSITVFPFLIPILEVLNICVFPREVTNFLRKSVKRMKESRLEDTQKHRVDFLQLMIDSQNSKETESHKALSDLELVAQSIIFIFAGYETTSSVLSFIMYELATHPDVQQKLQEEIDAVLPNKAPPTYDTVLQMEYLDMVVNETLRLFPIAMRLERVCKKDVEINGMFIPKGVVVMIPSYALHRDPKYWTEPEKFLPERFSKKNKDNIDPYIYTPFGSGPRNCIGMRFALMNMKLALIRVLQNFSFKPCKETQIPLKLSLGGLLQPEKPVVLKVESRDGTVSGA

cyclophilin A (CypA) = cyclophilin A (CypA) (Homo sapiens (Human), UniProt P62937); test: Inhibitor binding to cyclophilin proteins by SPR, CypA; set-up: unit not given here; conditions: 1:1 binding model;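 also: Single-cycle kinetics on a Biacore T200, compound injected at several concentrations for 1 min each at 50 µL/min, then 10 min dissociation, in HEPES pH 7.4 buffer with 3% DMSO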
Chain of cyclophilin A (CypA) (P62937 whole entry): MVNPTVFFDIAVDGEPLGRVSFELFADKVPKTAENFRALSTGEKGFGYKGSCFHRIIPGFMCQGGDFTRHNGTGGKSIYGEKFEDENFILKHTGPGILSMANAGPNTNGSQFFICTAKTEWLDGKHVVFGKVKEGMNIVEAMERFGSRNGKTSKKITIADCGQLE

CypF = CypF (Homo sapiens (Human), UniProt P30405); test: Inhibitor binding to cyclophilin proteins by SPR, CypF; conditions: 1:1 binding model
Chain of CypF (P30405 30-207): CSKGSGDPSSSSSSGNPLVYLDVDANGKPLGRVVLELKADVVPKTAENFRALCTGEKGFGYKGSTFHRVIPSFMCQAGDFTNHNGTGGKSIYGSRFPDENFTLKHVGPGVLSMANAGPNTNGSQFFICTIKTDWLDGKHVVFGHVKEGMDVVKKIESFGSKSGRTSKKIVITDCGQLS
How it was run: (§1)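 A 1:1 model fitted to single-cycle kinetic SPR data gave association and dissociation rates and KD. Compound series injected for 1 min each at 50 μL/min, then 10 min dissociation. Running buffer HEPES pH 7.4 with NaCl, P20 and 3% DMSO; target protein was biotinylated avi-tagged cyclophilin on a CAPture surface.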

[2] = biological target: organic anion transporting polypeptide 1B1 (OATP1B1) (Homo sapiens (Human), UniProt Q9Y6L6); test: OATP assay in CHO-OATP1B1 cells;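 also: inhibition of probe substrate uptake into the cells, ten minutes exposure, accumulated substrate read by fluorescence once cells were lysed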
Chain of organic anion transporting polypeptide 1B1 (OATP1B1) (Q9Y6L6 whole entry): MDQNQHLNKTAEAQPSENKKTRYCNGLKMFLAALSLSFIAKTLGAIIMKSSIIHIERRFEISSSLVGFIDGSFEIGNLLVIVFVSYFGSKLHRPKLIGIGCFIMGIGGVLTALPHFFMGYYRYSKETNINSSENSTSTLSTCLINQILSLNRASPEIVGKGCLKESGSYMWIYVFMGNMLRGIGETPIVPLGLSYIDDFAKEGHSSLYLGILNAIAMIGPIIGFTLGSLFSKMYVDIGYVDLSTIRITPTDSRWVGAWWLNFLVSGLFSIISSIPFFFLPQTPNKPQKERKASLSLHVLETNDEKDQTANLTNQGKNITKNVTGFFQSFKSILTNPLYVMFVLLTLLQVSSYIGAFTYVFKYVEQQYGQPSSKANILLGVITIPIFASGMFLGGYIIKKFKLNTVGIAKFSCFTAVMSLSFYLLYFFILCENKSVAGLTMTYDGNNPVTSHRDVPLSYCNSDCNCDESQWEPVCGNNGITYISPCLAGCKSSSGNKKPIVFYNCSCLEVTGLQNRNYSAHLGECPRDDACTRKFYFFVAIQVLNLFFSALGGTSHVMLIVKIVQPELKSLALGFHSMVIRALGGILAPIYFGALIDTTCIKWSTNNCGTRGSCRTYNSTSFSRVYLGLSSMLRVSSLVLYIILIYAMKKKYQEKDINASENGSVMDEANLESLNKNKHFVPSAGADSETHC

cyclophilin B (CypB) = cyclophilin B (CypB) (Homo sapiens (Human), UniProt P23284); test: Inhibitor binding to cyclophilin proteins by SPR, CypB; set-up: unit not given here; conditions: 1:1 binding model
Chain of cyclophilin B (CypB) (P23284 34-216): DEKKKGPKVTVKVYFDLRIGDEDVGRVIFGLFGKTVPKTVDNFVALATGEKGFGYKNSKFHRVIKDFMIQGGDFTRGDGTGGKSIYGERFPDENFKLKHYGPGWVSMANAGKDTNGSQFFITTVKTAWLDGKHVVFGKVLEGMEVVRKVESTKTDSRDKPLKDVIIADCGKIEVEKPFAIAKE
How it was run: as §1

[3] = system: peripheral blood mononuclear cells (PBMC); test: Anti-proliferative or immunosuppressive activity, BrdU incorporation in PHA-stimulated PBMC; assay type: cell-based; conditions: PHA 3 μg/ml, 60 hour compound treatment; read-out: EMV PBMC IC50
How it was run: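 Fresh PBMCs from two donors, 30,000 per well in X-VIVO 15 medium, stimulated with 3 μg/ml PHA to drive T-cell proliferation. Proliferation measured as BrdU incorporation into DNA by BrdU ELISA.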

[4] = genotype 1b replicon, 72 h incubation

Row | Compound | IC50 [1, 4] | Ki (CYP3A4) | CypA Kd (cyclophilin A (CypA)) | CypF Kd (CypF) | IC50 [2] | CypB Kd (cyclophilin B (CypB)) | IC50 [3] | NIM TDI kinact/Ki (CYP3A4; probe substrate midazolam) | IC50 [1]
1 | C/C=C/C[C@@H](C)[C@@H](O)[C@H]1C(=O)N[C@@H](CC)C(=O)N(C)[C@H](C)C(=O)N(C)[C@@H]([C@H](C)CN2CC(OC)C2)C(=O)N[C@@H](C(C)C)C(=O)N(C)[C@@H](CC(C)C)C(=O)N[C@@H](C)C(=O)N[C@H](C)C(=O)N(C)[C@@H](CC(C)C)C(=O)N(C)[C@@H](CC(C)C)C(=O)N(C)[C@@H](C(C)C)C(=O)N1C [Compound 2.5.17, 3-[D-Ala]-4-[(2S,3R)-4-(3-methoxyazetidin-1-yl)-3-methyl-2-(methylamino)butanoyl]-cyclosporin] (cyclo(A[dA][NMeL][NMeL][NMeV][MeBmt][Abu][dNMeA][X23]V[NMeL])) | 44 nM | > 50000 nM | 1.9 | 1 nM | 4200 nM | 0.9 | 17600 nM | – | –
2 | C/C=C/C[C@@H](C)[C@@H](O)[C@H]1C(=O)N[C@@H](CC)C(=O)N(C)[C@H](C)C(=O)N(C)[C@@H]([C@H](C)CN2CCN(C)CC2)C(=O)N[C@@H](C(C)C)C(=O)N(C)[C@@H](CC(C)C)C(=O)N[C@@H](C)C(=O)N[C@H](C)C(=O)N(C)[C@@H](CC(C)C)C(=O)N(C)[C@@H](CC(C)C)C(=O)N(C)[C@@H](C(C)C)C(=O)N1C [Compound 2.5.29, 3-[D-Ala]-4-[(2S,3R)-3-methyl-2-(methylamino)-4-(4-methylpiperazin-1-yl)butanoyl]-cyclosporin] (cyclo(A[dA][NMeL][NMeL][NMeV][MeBmt][Abu][dNMeA][X14]V[NMeL])) | 56 nM | > 50000 nM | 1.5 | 0.6 nM | 7900 nM | 0.7 | 12200 nM | – | –
3 | C/C=C/C[C@@H](C)[C@@H](O)[C@H]1C(=O)N[C@@H](CC)C(=O)N(C)[C@H](C)C(=O)N(C)[C@@H]([C@H](C)COCCN2CCN(C3CCC3)CC2)C(=O)N[C@@H](C(C)C)C(=O)N(C)[C@@H](CC(C)C)C(=O)N[C@@H](C)C(=O)N[C@H](C)C(=O)N(C)[C@@H](CC(C)C)C(=O)N(C)[C@@H](CC(C)C)C(=O)N(C)[C@@H](C(C)C)C(=O)N1C [Compound 2.8.8, 3-[D-Ala]-4-[(2S,3S)-4-(2-(4-cyclobutylpiperazin-1-yl)ethoxy)-3-methyl-2-(methylamino)butanoyl]-cyclosporin] (cyclo(A[dA][NMeL][NMeL][NMeV][MeBmt][Abu][dNMeA][X58]V[NMeL])) | 35 nM | – | 0.5 | 0.3 nM | 3500 nM | 0.5 | 18900 nM | 12 M⁻¹ s⁻¹ | –
4 | C/C=C/C[C@@H](C)[C@@H](O)[C@H]1C(=O)N[C@@H](CC)C(=O)N(C)[C@H](C)C(=O)N(C)[C@@H]([C@H](C)CC#N)C(=O)N[C@@H](C(C)C)C(=O)N(C)[C@@H](CC(C)C)C(=O)N[C@@H](C)C(=O)N[C@H](C)C(=O)N(C)[C@@H](CC(C)C)C(=O)N(C)[C@@H](CC(C)C)C(=O)N(C)[C@@H](C(C)C)C(=O)N1C [Compound 2.10, 3-[D-Ala]-4-[(2S,3R)-4-cyano-3-methyl-2-(methylamino)butanoyl]-cyclosporin] (cyclo(A[dA][NMeL][NMeL][NMeV][MeBmt][Abu][dNMeA][X13]V[NMeL])) | 27 nM | > 50000 nM | 1.2 | 0.5 nM | 900 nM | 0.5 | 12900 nM | – | –
5 | C/C=C/C[C@@H](C)[C@@H](O)[C@H]1C(=O)N[C@@H](CC)C(=O)N(C)[C@H](C)C(=O)N(C)[C@@H](C(COC)COC)C(=O)N[C@@H](C(C)C)C(=O)N(C)[C@@H](CC(C)C)C(=O)N[C@@H](C)C(=O)N[C@H](C)C(=O)N(C)[C@@H](CC(C)C)C(=O)N(C)[C@@H](CC(C)C)C(=O)N(C)[C@@H](C(C)C)C(=O)N1C [Compound 2.11, 3-[D-Ala]-4-[(S)-4-methoxy-3-(methoxymethyl)-2-(methylamino)butanoyl]-cyclosporin] (cyclo(A[dA][NMeL][NMeL][NMeV][MeBmt][Abu][dNMeA][X15]V[NMeL])) | 58 nM | > 50000 nM | 1.9 | 1.2 nM | 2600 nM | 1.3 | 7900 nM | – | –
6 | C/C=C/C[C@@H](C)[C@@H](O)[C@H]1C(=O)N[C@@H](CC)C(=O)N(C)[C@H](C)C(=O)N(C)[C@@H]([C@H](C)CCC(C)(C)O)C(=O)N[C@@H](C(C)C)C(=O)N(C)[C@@H](CC(C)C)C(=O)N[C@@H](C)C(=O)N[C@H](C)C(=O)N(C)[C@@H](CC(C)C)C(=O)N(C)[C@@H](CC(C)C)C(=O)N(C)[C@@H](C(C)C)C(=O)N1C [Compound 2.12, 3-[D-Ala]-4-[(2S,3R)-6-hydroxy-3,6-dimethyl-2-(methylamino)heptanoyl]-cyclosporin] (cyclo(A[dA][NMeL][NMeL][NMeV][MeBmt][Abu][dNMeA][X18]V[NMeL])) | – | > 50000 nM | 2.1 | 1.1 nM | 2200 nM | 1.1 | 7100 nM | – | 80 nM
7 | C/C=C/C[C@@H](C)[C@@H](O)[C@H]1C(=O)N[C@@H](CC)C(=O)N(C)[C@H](C)C(=O)N(C)[C@@H]([C@@H](C)CN2CCOCC2)C(=O)N[C@@H](C(C)C)C(=O)N(C)[C@@H](CC(C)C)C(=O)N[C@@H](C)C(=O)N[C@H](C)C(=O)N(C)[C@@H](CC(C)C)C(=O)N(C)[C@@H](CC(C)C)C(=O)N(C)[C@@H](C(C)C)C(=O)N1C [Compound 2.17.1, 3-[D-Ala]-4[(2S,3S)-2-Amino-3-methyl-4-morpholin-4-yl-butanoyl]-cyclosporin] (cyclo(A[dA][NMeL][NMeL][NMeV][MeBmt][Abu][dNMeA][X9]V[NMeL])) | 29 nM | > 50000 nM | 0.6 | 0.3 nM | 3600 nM | 0.4 | 18000 nM | – | –
8 | C/C=C/C[C@@H](C)[C@@H](O)[C@H]1C(=O)N[C@@H](CC)C(=O)N(C)[C@H](C)C(=O)N(C)[C@@H]([C@@H](C)CN2CCN(CC)CC2)C(=O)N[C@@H](C(C)C)C(=O)N(C)[C@@H](CC(C)C)C(=O)N[C@@H](C)C(=O)N[C@H](C)C(=O)N(C)[C@@H](CC(C)C)C(=O)N(C)[C@@H](CC(C)C)C(=O)N(C)[C@@H](C(C)C)C(=O)N1C [Compound 2.17.2, 3-[D-Ala]-4[(2S,3S)-2-Amino-4-(4-ethyl-piperazin-1-yl)-3-methyl-butanoyl]-cyclosporin] (cyclo(A[dA][NMeL][NMeL][NMeV][MeBmt][Abu][dNMeA][X11]V[NMeL])) | 35 nM | > 50000 nM | 0.6 | 0.5 nM | 5100 nM | 0.5 | 14500 nM | – | –
9 | C/C=C/C[C@@H](C)[C@@H](O)[C@H]1C(=O)N[C@@H](CC)C(=O)N(C)[C@H](C)C(=O)N(C)[C@@H]([C@@H](C)CN2CCN(C3CCC3)CC2)C(=O)N[C@@H](C(C)C)C(=O)N(C)[C@@H](CC(C)C)C(=O)N[C@@H](C)C(=O)N[C@H](C)C(=O)N(C)[C@@H](CC(C)C)C(=O)N(C)[C@@H](CC(C)C)C(=O)N(C)[C@@H](C(C)C)C(=O)N1C [Compound 2.17.3, 3-[D-Ala]-4[(2S,3S)-2-Amino-4-(4-cyclobutyl-piperazin-1-yl)-3-methyl-butanoyl]-cyclosporin] (cyclo(A[dA][NMeL][NMeL][NMeV][MeBmt][Abu][dNMeA][X12]V[NMeL])) | 31 nM | > 50000 nM | 0.5 | 0.3 nM | 4000 nM | 0.4 | 6700 nM | – | –
10 | C/C=C/C[C@@H](C)[C@@H](O)[C@H]1C(=O)N[C@@H](CC)C(=O)N(C)[C@H](C)C(=O)N(C)[C@@H]([C@@H](C)CN2CCN(CCOC)CC2)C(=O)N[C@@H](C(C)C)C(=O)N(C)[C@@H](CC(C)C)C(=O)N[C@@H](C)C(=O)N[C@H](C)C(=O)N(C)[C@@H](CC(C)C)C(=O)N(C)[C@@H](CC(C)C)C(=O)N(C)[C@@H](C(C)C)C(=O)N1C [Compound 2.17.4, 3-[D-Ala]-4[(2S,3S)-2-Amino-4-[4-(2-methoxy-ethyl)-piperazin-1-yl]-3-methyl-butanoyl]-cyclosporin] (cyclo(A[dA][NMeL][NMeL][NMeV][MeBmt][Abu][dNMeA][X19]V[NMeL])) | 31 nM | > 50000 nM | 0.6 | 0.3 nM | 3200 nM | 0.5 | 2700 nM | – | –
11 | C/C=C/C[C@@H](C)[C@@H](O)[C@H]1C(=O)N[C@@H](CC)C(=O)N(C)[C@H](C)C(=O)N(C)[C@@H]([C@@H](C)CN2CCN(C3COC3)CC2)C(=O)N[C@@H](C(C)C)C(=O)N(C)[C@@H](CC(C)C)C(=O)N[C@@H](C)C(=O)N[C@H](C)C(=O)N(C)[C@@H](CC(C)C)C(=O)N(C)[C@@H](CC(C)C)C(=O)N(C)[C@@H](C(C)C)C(=O)N1C [Compound 2.17.5, 3-[D-Ala]-4[(2S,3S)-2-Amino-3-methyl-4-(4-oxetan-3-yl-piperazin-1-yl)-butanoyl]-cyclosporin] (cyclo(A[dA][NMeL][NMeL][NMeV][MeBmt][Abu][dNMeA][X6]V[NMeL])) | 33 nM | > 50000 nM | 0.7 | 0.4 nM | 1800 nM | 0.5 | 35200 nM | – | –
